From publication PMC8350192 (Heliyon, 2021)

Experiments:
[1] = target: T1, Porcine Pancreas Lipase (PPL) (Sus scrofa, UniProt P00591); experiment: Inhibition of lipase activity assay in vitro; assay type: biochemical; conditions: for inhibition at 6.25 µg/mL / inhibition at 12.5 µg/mL / inhibition at 25 µg/mL / inhibition at 50 µg/mL / inhibition at 100 µg/mL / inhibition at 200 µg/mL: read-out: Inhibition Percentage (%)
T1 sequence (P00591 1-450): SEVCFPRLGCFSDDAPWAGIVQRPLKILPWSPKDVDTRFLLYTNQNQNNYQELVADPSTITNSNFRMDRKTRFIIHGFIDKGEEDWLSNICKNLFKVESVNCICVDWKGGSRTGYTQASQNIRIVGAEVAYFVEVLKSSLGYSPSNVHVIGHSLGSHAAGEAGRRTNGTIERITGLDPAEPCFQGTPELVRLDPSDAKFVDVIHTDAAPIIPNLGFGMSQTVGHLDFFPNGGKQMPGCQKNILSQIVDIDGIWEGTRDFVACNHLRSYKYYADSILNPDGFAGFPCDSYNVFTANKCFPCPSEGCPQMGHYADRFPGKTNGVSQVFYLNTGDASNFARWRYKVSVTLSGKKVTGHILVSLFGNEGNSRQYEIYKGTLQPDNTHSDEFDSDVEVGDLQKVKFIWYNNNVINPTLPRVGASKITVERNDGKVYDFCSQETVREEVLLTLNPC

[2] = tested on: gastrointestinal and pancreatic lipases; conditions: ref Guercioloni, 1997; Bellinger and Peikin, 2002; Othman et al., 2021; cited from earlier work

Row | Compound | IC50 [1] | inhibition at 6.25 µg/mL [1] | inhibition at 12.5 µg/mL [1] | inhibition at 25 µg/mL [1] | inhibition at 50 µg/mL [1] | inhibition at 100 µg/mL [1] | inhibition at 200 µg/mL [1] | prevention of absorption of dietary fat [2]
1 | Cn1c(=O)c2c(ncn2C)n(C)c1=O [Compound 2, caffeine] | 80.3 µM | 34% | 38.6% | 64.6% | 76.2% | 81.4% | 83.9% | –
2 | O=C(/C=C/c1ccc(O)c(O)c1)O[C@@H]1C[C@](O)(C(=O)O)C[C@@H](O)[C@H]1O [Compound 3, Chlorogenic acid] | 33.6 µM | 29.4% | 59.2% | 64.2% | 77.6% | 86.7% | 89.6% | –
3 | CCCCCCCCCCC[C@@H](C[C@@H]1OC(=O)[C@H]1CCCCCC)OC(=O)[C@H](CC(C)C)NC=O [Orlistat] | – | 50.6% | 52.4% | 55.6% | 77.3% | 89.4% | 93.3% | approximately 30%
